Results published in the supplement of paper PMC10307832.

Legend:
Assay in all cases: relative viability (nuclei count vs DMSO), 5 days (fraction); higher = more cells survive
[1] = compound: CCn1c(-c2nonc2N)nc2cnc(Oc3cccc(NC(=O)c4ccc(OCCN5CCOCC5)cc4)c3)cc21 + N=C(N)NC(=N)NCCc1ccccc1 [Phenformin] (partner 250 µM)
Outline: (§1)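 A single step with final 0.05% Triton X-100, 1% formaldehyde and 1 ug/ml Hoechst fixed the cells and stained nuclei 5 days after treatment. Lung cancer cell lines in 1536-well plates had been treated by pin tool the day after seeding with one drug alone or a fixed anchor-drug dose plus five library-drug doses (not always all listed) in √10 steps, and nuclei were counted on 4× images. Relative viability is the ratio of nuclei in treated wells to nuclei in vehicle wells, taken as the median of duplicate plates.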

[2] = compound: CCn1c(-c2nonc2N)nc2cnc(Oc3cccc(NC(=O)c4ccc(OCCN5CCOCC5)cc4)c3)cc21 + C[C@]1(O)C[C@@H](c2nc(-c3ccc4ccc(-c5ccccc5)nc4c3)c3c(N)nccn32)C1 [Linsitinib] (partner 1 µM)
Outline: as §1

[3] = compound: CCC1=CN=CN=C1N2CCN(CC2)CC3=NC4=C(N3)C=C(C=C4)C(F)(F)F + Cc1cc(Nc2cc(N3CCN(C)CC3)nc(Sc3ccc(NC(=O)C4CC4)cc3)n2)n[nH]1 [Tozasertib] (partner 0.1 µM)
Outline: as §1

[4] = compound: CCC1=CN=CN=C1N2CCN(CC2)CC3=NC4=C(N3)C=C(C=C4)C(F)(F)F + O=C(c1cc(Cc2n[nH]c(=O)c3ccccc23)ccc1F)N1CCN(C(=O)C2CC2)CC1 [Olaparib] (partner 8 µM)
Outline: as §1

SW 1573 was tested, and the relative viability ([1]; first compound 0.04 µM) was 0.513, the relative viability ([1]; first compound 0.1265 µM) was 0.345 and the relative viability ([1]; first compound 0.4 µM) was 0.344. For the same cell line, the relative viability ([1]; first compound 1.265 µM) was 0.282, the relative viability ([1]; first compound 4 µM) was 0.154 and the relative viability ([2]; first compound 0.04 µM) was 0.905. It also gave a relative viability ([2]; first compound 0.1265 µM) of 0.744, a relative viability ([2]; first compound 0.4 µM) of 0.833 and a relative viability ([2]; first compound 1.265 µM) of 0.479. The relative viability ([2]; first compound 4 µM) was 0.342, the relative viability ([3]; first compound 0.04 µM) was 0.205 and the relative viability ([3]; first compound 0.1265 µM) was 0.214. The relative viability ([3]; first compound 0.4 µM) was 0.181, the relative viability ([3]; first compound 1.265 µM) was 0.153 and the relative viability ([3]; first compound 4 µM) was 0.203. It also gave a relative viability ([4]; first compound 0.04 µM) of 0.447, a relative viability ([4]; first compound 0.1265 µM) of 0.462 and a relative viability ([4]; first compound 0.4 µM) of 0.45. The relative viability ([4]; first compound 1.265 µM) was 0.443 and the relative viability ([4]; first compound 4 µM) was 0.379.

In the case of LOU-NH91, the relative viability ([1]; first compound 0.04 µM) is reported as 0.797, the relative viability ([1]; first compound 0.1265 µM) is reported as 0.605 and the relative viability ([1]; first compound 0.4 µM) is reported as 0.465. The relative viability ([1]; first compound 1.265 µM) was 0.389, the relative viability ([1]; first compound 4 µM) was 0.404 and the relative viability ([2]; first compound 0.04 µM) was 1. It also gave a relative viability ([2]; first compound 0.1265 µM) of 0.748, a relative viability ([2]; first compound 0.4 µM) of 0.744 and a relative viability ([2]; first compound 1.265 µM) of 0.632. It also gave a relative viability ([2]; first compound 4 µM) of 0.611, a relative viability ([3]; first compound 0.04 µM) of 0.625 and a relative viability ([3]; first compound 0.1265 µM) of 0.68. For the same cell line, the relative viability ([3]; first compound 0.4 µM) was 0.669, the relative viability ([3]; first compound 1.265 µM) was 0.585 and the relative viability ([3]; first compound 4 µM) was 0.657. It also gave a relative viability ([4]; first compound 0.04 µM) of 0.892, a relative viability ([4]; first compound 0.1265 µM) of 0.951 and a relative viability ([4]; first compound 0.4 µM) of 0.898. It also gave a relative viability ([4]; first compound 1.265 µM) of 0.896 and a relative viability ([4]; first compound 4 µM) of 0.94.

For LXF-289, the relative viability ([1]; first compound 0.04 µM) was 0.554, the relative viability ([1]; first compound 0.1265 µM) was 0.526 and the relative viability ([1]; first compound 0.4 µM) was 0.361. It also gave a relative viability ([1]; first compound 1.265 µM) of 0.334, a relative viability ([1]; first compound 4 µM) of 0.341 and a relative viability ([2]; first compound 0.04 µM) of 1.08. For the same cell line, the relative viability ([2]; first compound 0.1265 µM) was 1.06, the relative viability ([2]; first compound 0.4 µM) was 0.955 and the relative viability ([2]; first compound 1.265 µM) was 0.978. It also gave a relative viability ([2]; first compound 4 µM) of 0.973, a relative viability ([3]; first compound 0.04 µM) of 0.168 and a relative viability ([3]; first compound 0.1265 µM) of 0.175. For the same cell line, the relative viability ([3]; first compound 0.4 µM) was 0.206, the relative viability ([3]; first compound 1.265 µM) was 0.16 and the relative viability ([3]; first compound 4 µM) was 0.192. It also gave a relative viability ([4]; first compound 0.04 µM) of 1.08, a relative viability ([4]; first compound 0.1265 µM) of 1.01 and a relative viability ([4]; first compound 0.4 µM) of 1.05. For the same cell line, the relative viability ([4]; first compound 1.265 µM) was 1.02 and the relative viability ([4]; first compound 4 µM) was 0.933.

Work on NCI-H1299 yielded a relative viability ([2]; first compound 0.04 µM) of 0.987, a relative viability ([2]; first compound 0.1265 µM) of 0.858 and a relative viability ([2]; first compound 0.4 µM) of 0.777. The relative viability ([2]; first compound 1.265 µM) was 0.47, the relative viability ([2]; first compound 4 µM) was 0.769 and the relative viability ([4]; first compound 0.04 µM) was 0.942. For the same cell line, the relative viability ([4]; first compound 0.1265 µM) was 0.969, the relative viability ([4]; first compound 0.4 µM) was 0.975 and the relative viability ([4]; first compound 1.265 µM) was 0.982. It also gave a relative viability ([4]; first compound 4 µM) of 0.949.

For HARA, the relative viability ([1]; first compound 0.04 µM) was 0.585, the relative viability ([1]; first compound 0.1265 µM) was 0.369 and the relative viability ([1]; first compound 0.4 µM) was 0.231. For the same cell line, the relative viability ([1]; first compound 1.265 µM) was 0.0981, the relative viability ([1]; first compound 4 µM) was 0.074 and the relative viability ([2]; first compound 0.04 µM) was 1.04. The relative viability ([2]; first compound 0.1265 µM) was 0.733, the relative viability ([2]; first compound 0.4 µM) was 1 and the relative viability ([2]; first compound 1.265 µM) was 0.634. It also gave a relative viability ([2]; first compound 4 µM) of 0.698, a relative viability ([3]; first compound 0.04 µM) of 0.106 and a relative viability ([3]; first compound 0.1265 µM) of 0.108. The relative viability ([3]; first compound 0.4 µM) was 0.0892, the relative viability ([3]; first compound 4 µM) was 0.0831 and the relative viability ([4]; first compound 0.04 µM) was 0.743. It also gave a relative viability ([4]; first compound 0.1265 µM) of 0.923, a relative viability ([4]; first compound 0.4 µM) of 0.763 and a relative viability ([4]; first compound 1.265 µM) of 0.737. For the same cell line, the relative viability ([4]; first compound 4 µM) was 0.84.

LU99A gave a relative viability ([1]; first compound 0.04 µM) of 0.614, a relative viability ([1]; first compound 0.1265 µM) of 0.706 and a relative viability ([1]; first compound 0.4 µM) of 0.623. For the same cell line, the relative viability ([1]; first compound 1.265 µM) was 0.683, the relative viability ([1]; first compound 4 µM) was 0.505 and the relative viability ([2]; first compound 0.04 µM) was 0.56. It also gave a relative viability ([2]; first compound 0.1265 µM) of 0.458, a relative viability ([2]; first compound 0.4 µM) of 0.507 and a relative viability ([2]; first compound 1.265 µM) of 0.539. For the same cell line, the relative viability ([2]; first compound 4 µM) was 0.565, the relative viability ([3]; first compound 0.04 µM) was 0.268 and the relative viability ([3]; first compound 0.1265 µM) was 0.281. For the same cell line, the relative viability ([3]; first compound 0.4 µM) was 0.282, the relative viability ([3]; first compound 1.265 µM) was 0.278 and the relative viability ([3]; first compound 4 µM) was 0.297. For the same cell line, the relative viability ([4]; first compound 0.04 µM) was 0.308, the relative viability ([4]; first compound 0.1265 µM) was 0.282 and the relative viability ([4]; first compound 0.4 µM) was 0.276. For the same cell line, the relative viability ([4]; first compound 1.265 µM) was 0.28 and the relative viability ([4]; first compound 4 µM) was 0.301.

Cell Line 201T has a relative viability ([1]; first compound 0.04 µM) of 0.471, a relative viability ([1]; first compound 0.1265 µM) of 0.44 and a relative viability ([1]; first compound 0.4 µM) of 0.342. It also gave a relative viability ([1]; first compound 1.265 µM) of 0.368, a relative viability ([1]; first compound 4 µM) of 0.396 and a relative viability ([2]; first compound 0.04 µM) of 1.01. It also gave a relative viability ([2]; first compound 0.1265 µM) of 1.05, a relative viability ([2]; first compound 0.4 µM) of 1.03 and a relative viability ([2]; first compound 1.265 µM) of 1.03. For the same cell line, the relative viability ([2]; first compound 4 µM) was 1.1, the relative viability ([3]; first compound 0.04 µM) was 0.923 and the relative viability ([3]; first compound 0.1265 µM) was 0.936. The relative viability ([3]; first compound 0.4 µM) was 0.9, the relative viability ([3]; first compound 1.265 µM) was 0.846 and the relative viability ([3]; first compound 4 µM) was 0.919. It also gave a relative viability ([4]; first compound 0.04 µM) of 0.816, a relative viability ([4]; first compound 0.1265 µM) of 0.831 and a relative viability ([4]; first compound 0.4 µM) of 0.866. The relative viability ([4]; first compound 1.265 µM) was 0.814 and the relative viability ([4]; first compound 4 µM) was 0.853.
